Blank lines part the entries; values can stand above or below the molecule they belong to.
Experiments:
adenosine A2A receptor = settings: cited from earlier work
[1] = target: human adenosine A2A receptors (Homo sapiens, UniProt P29274); assay: Binding affinities at hA2A receptors, displacement of [3H]-CGS 21680
[2] = cited from earlier work

Sequence of human adenosine A2A receptors (P29274 whole entry): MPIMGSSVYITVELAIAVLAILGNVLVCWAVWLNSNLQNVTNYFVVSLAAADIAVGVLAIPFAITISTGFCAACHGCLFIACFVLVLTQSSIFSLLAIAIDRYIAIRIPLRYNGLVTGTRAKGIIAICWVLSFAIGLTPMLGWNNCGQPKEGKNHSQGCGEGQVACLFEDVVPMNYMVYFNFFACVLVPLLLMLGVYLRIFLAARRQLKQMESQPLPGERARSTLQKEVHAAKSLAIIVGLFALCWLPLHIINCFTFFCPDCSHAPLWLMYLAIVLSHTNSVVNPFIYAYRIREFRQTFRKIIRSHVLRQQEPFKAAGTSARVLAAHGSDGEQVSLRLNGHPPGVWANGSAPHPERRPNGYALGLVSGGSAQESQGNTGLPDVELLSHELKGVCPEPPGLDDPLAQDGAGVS

Compound: CCCn1c(=O)c2c(nc(/C=C/c3ccc(OC)c(OC)c3)n2C)n(CCC)c1=O [KF 17837, (E)-8-(3,4-dimethoxystyryl)-1,3-dipropyl-7-methylxanthine]
anticataleptic effects of a subthreshold dose of L-DOPA plus benserazide (adenosine A2A receptor; in vivo): potentiated
catalepsy induced by haloperidol and reserpine (adenosine A2A receptor; in vivo): reduced
cataleptic responses induced by intracerebroventricular CGS 21680 (adenosine A2A receptor; oral administration): significantly ameliorated

Ki [1]: 7 nM
melting point: 259.2 °C
Compound: Cc1csc(-c2nc(N)nc3c2ncn3Cc2ccccc2F)n1 [Example 244, 9-(2-Fluorobenzyl)-6-(4-methyl-2-thiazolyl)-9H-purine-2-amine]

Ki [1]: 12 nM
melting point: 239.5 to 239.9 °C
Compound: CSc1nc(-c2ccco2)c2nc[nH]c2n1 [Example 13, 6-(2-Furyl)-2-methylthio-1H-purine]

Compound: Cn1c(=O)c2[nH]cnc2n(C)c1=O [theophylline]
mean objective disability scores ([2]; 15 Parkinsonian patients, up to 12 weeks, 150 mg/day oral): significant improvements
serum theophylline levels ([2]; slow release oral preparation 150 mg/day, after one week, Parkinsonian patients): 4.44 mg/L

Source: patent US7452894B2, “Purine derivatives as purinergic receptor antagonists” (Vernalis Research Limited, priority 2001, dated 2008)
